Measured values: US10561739B2, “Targeted pyrrolobenzodiazapine conjugates” (priority 2010, dated 2020)

What was measured:
Type in all cases: cell-based
[1] = system: K562 human chronic myeloid leukaemia cells; experiment: K562 assay (MTT cytotoxicity); conditions: drug incubation 1 hour or 96 hours
Procedure: K562 human chronic myeloid leukaemia cells were maintained in RPM1 1640 medium supplemented with 10% fetal calf serum and 2 mM glutamine at 37° C. in a humidified atmosphere containing 5% CO2 and were incubated with a specified dose of drug for 1 hour or 96 hours at 37° C. in the dark. The incubation was terminated by centrifugation (5 min, 300 g) and the cells were washed once with drug-free medium. Following the appropriate drug treatment, the cells were transferred to 96-well microtiter plates (10^4 cells per well, 8 wells per sample). Plates were then kept in the dark at 37° C. in a humidified atmosphere containing 5% CO2. The assay is based on the ability of viable cells to reduce a yellow soluble tetrazolium salt, 3-(4,5-dimethylthiazol-2-yl)-2,5-diphenyl-2H-tetrazolium bromide (MTT, Aldrich-Sigma), to an insoluble purple formazan precipitate. Following incubation of the plates for 4 days (to allow control cells to increase in number by approximately 10 fold), 20 μL of MTT solution (5 mg/mL in phosphate-buffered saline) was added to each well and the plates further incubated for 5 h. The plates were then centrifuged for 5 min at 300 g and the bulk of the medium pipetted from the cell pellet leaving 10-20 μL per well. […] The optical density was then read at a wavelength of 550 nm on a Titertek Multiscan ELISA plate reader, and a dose-response curve was constructed. […]

786-O cells = experiment: Free drug 48 hour Cell Titer Glo cytotoxicity, 786-O; conditions: Homo sapiens, 786-0, Table 3, 48 hours, read-out: IC50 Summary for Free Drugs, 786-O
Procedure: (§1) Referring to the following Table 3, the activities of compounds 23, 25, are compared to that of compound 11 on 786-O, Caki-1, MCF-7, HL-60, THP-1, HEL, and TF1 cells. Cells were plated in 150 μL growth media per well into black-sided clear-bottom 96-well plates (Costar, Corning) and allowed to settle for 1 hour in the biological cabinet before placing in the incubator at 37° C., 5% CO2. The following day, 4× concentration of drug stocks were prepared, and then titrated as 10-fold serial dilutions producing 8-point dose curves and added at 50 μl per well in duplicate. Cells were then incubated for 48 hours at 37° C., 5% CO2. Cytotoxicity was measure by incubating with 100 μL Cell Titer Glo (Promega) solution for 1 hour, and then luminescence was measured on a Fusion HT plate reader (Perkin Elmer). Data was processed with Excel (Microsoft) and GraphPad (Prism) to produce dose response curves and IC50 values were generated and data collected.

Caki-1 cells = experiment: Free drug 48 hour Cell Titer Glo cytotoxicity, Caki-1; conditions: Homo sapiens, Table 3, 48 hours, read-out: IC50 Summary for Free Drugs, Caki-1
Procedure: as §1

MCF-7 cells [2] = experiment: Free drug 48 hour Cell Titer Glo cytotoxicity, MCF-7; conditions: Homo sapiens, MCF7, Table 3, 48 hours, read-out: IC50 Summary for Free Drugs, MCF-7
Procedure: as §1

HL-60 cells = experiment: Free drug 48 hour Cell Titer Glo cytotoxicity, HL-60; conditions: Homo sapiens, Table 3, 48 hours, read-out: IC50 Summary for Free Drugs, HL-60
Procedure: as §1

THP-1 cells = experiment: Free drug 48 hour Cell Titer Glo cytotoxicity, THP-1; conditions: Homo sapiens, Table 3, 48 hours, read-out: IC50 Summary for Free Drugs, THP-1
Procedure: as §1

HEL cells = experiment: Free drug 48 hour Cell Titer Glo cytotoxicity, HEL; conditions: Homo sapiens, Table 3, 48 hours, read-out: IC50 Summary for Free Drugs, HEL
Procedure: as §1

TF1a cells = experiment: Free drug 48 hour Cell Titer Glo cytotoxicity, TF1a; conditions: TF-1a, Table 3, 48 hours, read-out: IC50 Summary for Free Drugs, TF1a
Procedure: as §1

MCF-7 cells [3] = experiment: Free drug cytotoxicity assay, MCF-7 (Table 2); conditions: Homo sapiens
Procedure: (§2) For a 96-hour assay, cells cultured in log-phase growth were seeded for 24 h in 96-well plates containing 150 μL RPMI 1640 supplemented with 20% FBS. Serial dilutions of test article (i.e., free drug) in cell culture media were prepared at 4× working concentration; 50 μL of each dilution was added to the 96-well plates. Following addition of test article, the cells were incubated with test articles for 4 days at 37° C. Resazurin was then added to each well to achieve a 50 μM final concentration, and the plates were incubated for an additional 4 h at 37° C. The plates were then read for the extent of dye reduction on a Fusion HT plate reader (Packard Instruments, Meridien, Conn., USA) with excitation and emission wavelengths of 530 and 590 nm, respectively. The IC50 value, determined in triplicate, is defined here as the concentration that results in a 50% reduction in cell growth relative to untreated controls.
Referring to the following Table 2, the activity of compounds 28, 30 and 32 is shown on L428, 786-O, HEL, HL-60 and MCF-7 cells, as well as the activity for compound 19 on MCF-7 cells.

[4] = system: 786-O renal cell carcinoma cell line (CD70+); experiment: ADC 96-hour resazurin cytotoxicity assay, 786-O
Procedure: (§3) The in vitro cytotoxic activity of the selected antibody drug conjugates was assessed using a resazurin (Sigma, St. Louis, Mo., USA) reduction assay (reference: Doronina et al., Nature Biotechnology, 2003, 21, 778-784). The antibody drug conjugates were prepared as described above in Example 13.
as §2, with “For the” for “For a”, “of ADC” for “of test article (i.e., free drug)”, “of ADC,” for “of test article,”

[5] = system: L428 Hodgkin lymphoma cell line (CD70+/30+); experiment: ADC 96-hour resazurin cytotoxicity assay, L428
Procedure: as §3
as §2, with “For the” for “For a”, “of ADC” for “of test article (i.e., free drug)”, “of ADC,” for “of test article,”

control (AML cell line) = experiment: ADC 96-hour resazurin cytotoxicity assay, control line of Table 7
Procedure: as §3
as §2, with “For the” for “For a”, “of ADC” for “of test article (i.e., free drug)”, “of ADC,” for “of test article,”
Referring to Table 7, the in vitro cytotoxicity of ADCs containing PBD dimers on CD70^+ cell lines using the 96 hour assay is shown. […]

Molecule: COc1ccc(C2=CN3C(=O)c4cc(OC)c(OCCCCCOc5cc6c(cc5OC)C(=O)N5C=C(c7ccc(N)cc7)C[C@H]5C=N6)cc4N=C[C@@H]3C2)cc1 [Compound 13, (S)-2-(4-aminophenyl)-7-methoxy-8-(5-((S)-7-methoxy-2-(4-methoxyphenyl)-5-oxo-5,11a-dihydro-1H-pyrrolo[2,1-c][1,4]benzodiazepine-8-yloxy)pentyloxy)-H-pyrrolo[2,1-c][1,4]benzodiazepine-5(11aH)-one]
- IC50 [1]: 30 pM

Molecule: COc1ccc(C2=CN3C(=O)c4cc(OC)c(OCCCCCOc5cc6c(cc5OC)C(=O)N5C=C(c7ccc(O)cc7)C[C@H]5C=N6)cc4N=C[C@@H]3C2)cc1 [Compound 23, (S)-2-(4-hydroxyphenyl)-7-methoxy-8-(5-((S)-7-methoxy-2-(4-methoxyphenyl)-5-oxo-5,11a-dihydro-1H-pyrrolo[2,1-c][1,4]benzodiazepin-8-yloxy)pentyloxy)-1H-pyrrolo[2,1-c][1,4]benzodiazepine-5(11aH)-one]
- IC50 (786-O cells): 60 pM
- IC50 (Caki-1 cells): 20 pM
- IC50 (MCF-7 cells [2]): 700 pM
- IC50 (HL-60 cells): 5 pM
- IC50 (THP-1 cells): 400 pM
- IC50 (HEL cells): 9 pM
- IC50 (TF1a cells): 200 pM

Molecule: COc1ccc(C2=CN3C(=O)c4cc(OC)c(OCCCCCOc5cc6c(cc5OC)C(=O)N5C=C(c7ccc(C=O)cc7)C[C@H]5C=N6)cc4N=C[C@@H]3C2)cc1 [Compound 25, 4-((S)-7-methoxy-8-(5-((S)-7-methoxy-2-(4-methoxyphenyl)-5-oxo-5,11a-dihydro-1H-pyrrolo[2,1-c][1,4]benzodiazepin-8-yloxy)pentyloxy)-5-oxo-5,11a-dihydro-1H-pyrrolo[2,1-c][1,4]benzodiazepine-2-yl)benzaldehyde]
- IC50 (786-O cells): 90 pM
- IC50 (Caki-1 cells): 60 pM
- IC50 (MCF-7 cells [2]): 800 pM
- IC50 (HL-60 cells): 10 pM
- IC50 (THP-1 cells): 900 pM
- IC50 (HEL cells): 20 pM
- IC50 (TF1a cells): 900 pM

Molecule: COc1cc2c(cc1OCCCCCOc1cc3c(cc1OC)C(=O)N1C=C(c4cccc(N)c4)C[C@H]1C=N3)N=C[C@@H]1CC(c3ccc(N4CCN(C)CC4)cc3)=CN1C2=O [Compound 30, (S)-2-(3-aminophenyl)-7-methoxy-8-(5-((S)-7-methoxy-2-(4-(4-methylpiperazin-1-yl)phenyl)-5-oxo-5,11a-dihydro-H-pyrrolo[2,1-c][1,4]benzodiazepin-8-yloxy)pentyloxy)-1H-pyrrolo[2,1-c][1,4]benzodiazepine-5(11aH)-one]
- IC50 (MCF-7 cells [3]; MCF7, Table 2, read-out: IC50 Summary for Free Drugs, MCF-7): 10 pM

Molecule: COc1ccc(C2=CN3C(=O)c4cc(OC)c(OCCCOc5cc6c(cc5OC)C(=O)N5C=C(c7ccc(CN)cc7)C[C@H]5C=N6)cc4N=C[C@@H]3C2)cc1 [Compound 32, (S)-2-(4-(aminomethyl)phenyl)-7-methoxy-8-(3-((S)-7-methoxy-2-(4-methoxyphenyl)-5-oxo-5,11a-dihydro-1H-pyrrolo[2,1-c][1,4]benzodiazepine-8-yloxy)propyloxy)-1H-pyrrolo[2,1-c][1,4]benzodiazepine-5(11aH)-one]
- IC50 (MCF-7 cells [3]; MCF7, read-out: IC50 Summary for Free Drugs, MCF-7): 1000 pM

B1: h1F6-44 (3.5 dr/mAb) (conjugate, chains of the INN, looked up)
VH: QVQLVQSGAEVKKPGASVKVSCKASGYTFTNYGMNWVRQAPGQGLKWMGWINTYTGEPTYADAFKGRVTMTRDTSISTAYMELSRLRSDDTAVYYCARDYGDYGMDYWGQGTTVTVSS
VL: DIVMTQSPDSLAVSLGERATINCRASKSVSTSGYSFMHWYQQKPGQPPKLLIYLASNLESGVPDRFSGSGSGTDFTLTISSLQAEDVAVYYCQHSREVPWTFGQGTKVEIK
modifications: drug-linker 44 conjugate, 3.5 drugs/mAb
- In vitro cytotoxic activity (IC50), 786-O [4]: 1.124 µg/mL
- In vitro cytotoxic activity (IC50), L428 [5]: 2.142 µg/mL

B2: h1F6 54 (4 dr/rnAb) (conjugate, chains of the INN, looked up)
VH: QVQLVQSGAEVKKPGASVKVSCKASGYTFTNYGMNWVRQAPGQGLKWMGWINTYTGEPTYADAFKGRVTMTRDTSISTAYMELSRLRSDDTAVYYCARDYGDYGMDYWGQGTTVTVSS
VL: DIVMTQSPDSLAVSLGERATINCRASKSVSTSGYSFMHWYQQKPGQPPKLLIYLASNLESGVPDRFSGSGSGTDFTLTISSLQAEDVAVYYCQHSREVPWTFGQGTKVEIK
modifications: drug-linker 54, 4 drugs/mAb
- In vitro cytotoxic activity (IC50), 786O [4]: No effect
- In vitro cytotoxic activity (IC50), L428 [5]: No effect
- In vitro cytotoxic activity (IC50), control (control (AML cell line)): No effect

B3: h1F6- 43(4 dr/rnAb) (conjugate, chains of the INN, looked up)
VH: QVQLVQSGAEVKKPGASVKVSCKASGYTFTNYGMNWVRQAPGQGLKWMGWINTYTGEPTYADAFKGRVTMTRDTSISTAYMELSRLRSDDTAVYYCARDYGDYGMDYWGQGTTVTVSS
VL: DIVMTQSPDSLAVSLGERATINCRASKSVSTSGYSFMHWYQQKPGQPPKLLIYLASNLESGVPDRFSGSGSGTDFTLTISSLQAEDVAVYYCQHSREVPWTFGQGTKVEIK
modifications: drug-linker 43, 4 drugs/mAb
- In vitro cytotoxic activity (IC50), 786O [4]: 0.011 µg/mL
- In vitro cytotoxic activity (IC50), L428 [5]: 0.404 µg/mL
- In vitro cytotoxic activity (IC50), control (control (AML cell line)): 1.205 µg/mL
